Data on 39 compounds can be found in US12534450B2, “Methods and compositions for targeting PD-L1” (Aligos Therapeutics, Inc., priority 2021, dated 2026).

Broadly, the EC50 is the midpoint of the concentration-response curve. A high value points to a need for much substance. One may read the IC50 as the concentration at which inhibition is half-maximal.

Structures are written as SMILES.

In the first assay the test system is PD-1/PD-L1 interaction. The assay can be described thus: PD-1/PD-L1 NFAT Reporter Assay (co-culture of Jurkat T cells overexpressing PD-1 and PD-L1 expressing CHO cells). The assay is classed as cell-based. The note with it: Homo sapiens, Jurkat, 6 h, co-culture 6 hrs at 37° C., NFAT-mediated luciferase activity. On the procedure:
Blocking the PD-1/PD-L1 interaction will release the inhibitory signal and results in TCR signaling and NFAT-mediated luciferase activity.
CHO cells expressing surface-bound anti-CD3 antibodies and PD-L1 were first seeded overnight and treated with the compounds. Jurkat cells overexpressing PD-1 and a luciferase construct under NFAT promoter were then immediately seeded on the monolayer of CHO cells. The co-culture was then incubated for 6 hrs at 37° C. Luciferase activity was assessed by adding the ONE-Glo reagent and measuring luminescence with a plate reader. EC50 values were determined from the fit of the dose-response curves.
In general terms: A reporter such as luciferase makes a cellular process visible.
`COc1nc(-c2cccc(-c3cccc(NC(=O)c4cn(C)c(=O)n(C)c4=O)c3Cl)c2Cl)cc2c1[C@@H](NC[C@@H]1CCC(=O)N1)CC2` (single isomer, unassigned) [Compound A-1] gave an EC50 of no more than 10 nM.
`COc1nc(-c2cccc(-c3cccc(NC(=O)c4cn(C)c(=O)n(C)c4=O)c3C)c2Cl)cc2c1[C@@H](NC[C@@H]1CCC(=O)N1)CO2` (single isomer, unassigned) [Compound A-19] returned a 50% effective concentration (EC50) of 10 to 100 nM.
Take `COc1nc(-c2cccc(-c3cccc(NC(=O)c4cn(C)c(=O)n(C)c4=O)c3Cl)c2Cl)cc2c1[C@@H](N1CC3(CCC(=O)N3)C1)CC2` (single isomer, unassigned) [Compound A-20]: the concentration for a half-maximal effect (EC50) lay within 10 to 100 nM.
Same read-out and setting: with `COc1nc(-c2cccc(-c3cccc(NC(=O)c4cn(C)c(=O)n(C)c4=O)c3Cl)c2Cl)cc2c1[C@@H](N1CC3(CCNC3=O)C1)CC2` (single isomer, unassigned) [Compound A-21] the figure was 100 to 1000 nM; with `COc1nc(-c2cccc(-c3cccc(NC(=O)c4nn(C)c(=O)n(C)c4=O)c3Cl)c2Cl)cc2c1[C@H](N1CC3(CN(C(C)=O)C3)C1)CC2` (single isomer, unassigned) [Compound A-71], no more than 10 nM.
Same read-out and setting: for `COc1nc(-c2cccc(-c3cccc(NC(=O)c4cn(C)c(=O)n(C)c4=O)c3Cl)c2C#N)cc2c1[C@@H](N[C@@H]1CCOC[C@@H]1O)CC2` (single isomer, unassigned) [Compound A-73] the value was 10 to 100 nM; for `COc1nc(-c2cccc(-c3cccc(NC(=O)c4nn(C)c(=O)n(C)c4=O)c3Cl)c2Cl)cc2c1[C@@H](N[C@@H]1CCOC[C@@H]1O)CC2` (single isomer, unassigned) [Compound A-76], no more than 10 nM.
Still for that read-out and setting: with `COc1nc(-c2cccc(-c3cccc(NC(=O)c4nn(C)c(=O)n(C)c4=O)c3C)c2Cl)cc2c1[C@@H](N[C@@H]1CCOC[C@@H]1O)CC2` (single isomer, unassigned) [Compound A-77] the figure was no more than 10 nM; with `COc1nc(-c2cccc(-c3cccc(NC(=O)c4cn(C)c(=O)n(C)c4=O)c3C)c2Cl)cc2c1[C@@H](NC[C@@H]1CCC(=O)N1)C(C)(C)C2` (single isomer, unassigned) [Compound A-123], greater than 5000 nM; with `COc1nc(-c2cccc(-c3cccc(NC(=O)c4cn(C)c(=O)n(C)c4=O)c3C)c2Cl)cc2c1[C@H](NC[C@@H]1CCC(=O)N1)C(C)(C)C2` (single isomer, unassigned) [Compound A-124], 1000 to 10000 nM.
Consider `COc1nc(-c2cccc(-c3cccc(NC(=O)c4cn(C)c(=O)n(C)c4=O)c3C)c2Cl)cc2c1[C@H](NC[C@@H]1CNC(=O)C1)CC2` (single isomer, unassigned) [Compound A-138], for which the EC50 was no more than 10 nM.
Same read-out and setting: for `COc1nc(-c2cccc(-c3cccc(NC(=O)c4cn(C)c(=O)n(C)c4=O)c3C)c2Cl)cc2c1[C@@H](N1CC3(CCC(=O)N3)C1)CC2` (single isomer, unassigned) [Compound A-139] the value was no more than 10 nM; for `COc1nc(-c2cccc(-c3cccc(NC(=O)c4cn(C)c(=O)n(C)c4=O)c3F)c2F)cc2c1[C@@H](NC[C@@H]1CCC(=O)N1)CC2` [Compound A-9], 10 to 100 nM; for `COc1cc(-c2cccc(-c3cccc(NC(=O)c4cn(C)c(=O)n(C)c4=O)c3Cl)c2Cl)cc2c1CC(NC[C@@H]1CCC(=O)N1)C2` (stereo partly shown) [Compound A-48], 100 to 1000 nM.
Still for that read-out and setting: for `COc1nc(-c2cccc(-c3cccc(NC(=O)c4cn(C)c(=O)n(C)c4=O)c3Cl)c2C#N)cc2c1[C@@H](NC[C@@H]1CCC(=O)N1)CC2` [Compound A-50] the value was 10 to 100 nM; for `COc1nc(-c2ccc(F)c(-c3cccc(NC(=O)c4cn(C)c(=O)n(C)c4=O)c3C)c2F)cc2c1[C@H](N1CC(O)C1)CC2` [Compound A-81], 10 to 100 nM; for `COc1nc(-c2cccc(-c3cccc(NC(=O)c4cn(C)c(=O)n(C)c4=O)c3Cl)c2Cl)cc2c1C(N[C@H]1CCOC[C@@H]1O)CC2` (stereo partly drawn) [Compound D-8a], 10 to 100 nM.
On the same count and under the same terms, for `COc1nc(-c2cccc(-c3cccc(NC(=O)c4cn(C)c(=O)n(C)c4=O)c3C)c2Cl)cc2c1C(NCC(=O)O)CC2` [Compound D-12] the value was 10 to 100 nM; for `COc1nc(-c2cccc(-c3cccc(NC(=O)c4cn(C)c(=O)n(C)c4=O)c3C)c2Cl)cc2c1C(NCC(=O)N1CCCC1)CC2` [Compound D-13], 10 to 100 nM.
`COc1nc(-c2cccc(-c3cccc(NC(=O)c4cn(C)c(=O)n(C)c4=O)c3Cl)c2Cl)cc2c1C(N1CC3(CNC(=O)C3)C1)CC2` [Compound D-14] came in with a concentration giving a half-maximal response (EC50) of no more than 10 nM.
As to `COc1nc(-c2cccc(-c3cccc(NC(=O)c4cn(C)c(=O)n(C)c4=O)c3C)c2Cl)cc2c1[C@@H](N(C)C[C@@H]1CCC(=O)N1)CC2` [Compound I-1], the EC50 was no more than 10 nM.

Still in this assay, the particulars now being: co-culture 6 hrs at 37° C., NFAT-mediated luciferase activity.
`COc1nc(-c2ccc(F)c(-c3cccc(NC(=O)c4cn(C)c(=O)n(C)c4=O)c3C)c2F)cc2c1[C@H](N1CC(O)C1)CC2` [Compound A-82]: the EC50 fell in the range of 10 to 100 nM.

In another assay the target is PD-1/PD-L1 PPI (Homo sapiens, UniProt Q9NZQ7). The assay can be described thus: PDL1/PD1 Binding Assay. The note with it: PDL1-6×His 0.3 nM, PD1-Fc-Avi-Biotin 2.5 nM, Acceptor/Donor beads, Envision reader. The procedure: Compounds to be tested were serially diluted in DMSO, and further diluted in assay buffer (25 mM Hepes pH 7.4, 150 mM NaCl, 0.005% Tween 20, BSA 0.01%). Diluted compounds were added to the wells with final concentration of DMSO at 1%. PDL1-6×His protein was added to the wells, mixed well with compound. The plates were incubated for 30 min at room temperature. PD1-Fc-Avi-Biotin protein was added to the wells. Final concentration of PDL1 and PD1 protein is 0.3 nM and 2.5 nM, respectively. After a binding time of 30 min at room temperature, Anti-6×His Acceptor beads (final concentration 20 ug/ml) were added to the wells, and the incubation continued for 1 h. Streptavidin Donor beads (final concentration 20 ug/mL) were added at reduced light. The plates were sealed with foil and incubated in the dark for additional 1 h or overnight before reading on an Envision reader. The IC50 values were determined by fitting the curves using a four-parameter equation in Graphpad Prism 8.
Chain of PD-1/PD-L1 PPI (Q9NZQ7 19-238 limits assumed): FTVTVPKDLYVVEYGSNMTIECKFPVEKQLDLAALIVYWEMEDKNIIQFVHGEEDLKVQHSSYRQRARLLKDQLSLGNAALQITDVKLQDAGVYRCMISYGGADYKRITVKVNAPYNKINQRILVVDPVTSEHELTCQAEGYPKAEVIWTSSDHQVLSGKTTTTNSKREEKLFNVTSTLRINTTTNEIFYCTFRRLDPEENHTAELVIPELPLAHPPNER
Regarding `COc1nc(-c2cccc(-c3cccc(NC(=O)c4cn(C)c(=O)n(C)c4=O)c3Cl)c2Cl)cc2c1[C@@H](NC[C@@H]1CCC(=O)N1)CC2` (single isomer, unassigned) [Compound A-1], the concentration for half-maximal inhibition (IC50) was no more than 10 nM.
The same measure, in the same setting: with `COc1nc(-c2cccc(-c3cccc(NC(=O)c4cn(C)c(=O)n(C)c4=O)c3C)c2Cl)cc2c1[C@@H](NC[C@@H]1CCC(=O)N1)CO2` (single isomer, unassigned) [Compound A-19] the figure was no more than 10 nM.
On the same count and under the same terms, for `COc1nc(-c2cccc(-c3cccc(NC(=O)c4cn(C)c(=O)n(C)c4=O)c3Cl)c2Cl)cc2c1[C@@H](N1CC3(CCC(=O)N3)C1)CC2` (single isomer, unassigned) [Compound A-20] the value was no more than 10 nM.
The same measure, in the same setting: with `COc1nc(-c2cccc(-c3cccc(NC(=O)c4cn(C)c(=O)n(C)c4=O)c3Cl)c2Cl)cc2c1[C@@H](N1CC3(CCNC3=O)C1)CC2` (single isomer, unassigned) [Compound A-21] the figure was no more than 10 nM.
In the case of `COc1nc(-c2cccc(-c3cccc(NC(=O)c4cn(C)c(=O)n(C)c4=O)c3Cl)c2Cl)cc2c1[C@@H](N1CC(OC)C1)CC2` (single isomer, unassigned) [Compound A-24], the IC50 is no more than 10 nM.
On the same count and under the same terms, with `COc1nc(-c2cccc(-c3cccc(NC(=O)c4cn(C)c(=O)n(C)c4=O)c3Cl)c2Cl)cc2c1[C@@H](N1CC(O)C1)CC2` (single isomer, unassigned) [Compound A-26] the figure was no more than 10 nM; with `COc1nc(-c2cccc(-c3cccc(NC(=O)c4cn(C)c(=O)n(C)c4=O)c3Cl)c2F)cc2c1[C@H](N[C@@H]1CCOC[C@@H]1O)CC2` (single isomer, unassigned) [Compound A-32], no more than 10 nM; with `COc1nc(-c2cccc(-c3cccc(NC(=O)c4cn(C)c(=O)n(C)c4=O)c3C)c2C)cc2c1[C@H](N[C@@H]1CCOC[C@@H]1O)CC2` (single isomer, unassigned) [Compound A-34], no more than 10 nM.
Still for that read-out and setting: with `COc1nc(-c2cccc(-c3cccc(NC(=O)c4cn(C)c(=O)n(C)c4=O)c3C)c2F)cc2c1[C@H](N[C@@H]1CCOC[C@@H]1O)CC2` (single isomer, unassigned) [Compound A-35] the figure was no more than 10 nM; with `COc1nc(-c2cccc(-c3cccc(NC(=O)c4cn(C)c(=O)n(C)c4=O)c3F)c2Cl)cc2c1[C@H](N[C@@H]1CCOC[C@@H]1O)CC2` (single isomer, unassigned) [Compound A-36], no more than 10 nM; with `COc1nc(-c2cccc(-c3cccc(NC(=O)c4cn(C)c(=O)n(C)c4=O)c3F)c2C)cc2c1[C@H](N[C@@H]1CCOC[C@@H]1O)CC2` (single isomer, unassigned) [Compound A-37], no more than 10 nM.
Same read-out and setting: for `COc1nc(-c2cccc(-c3cccc(NC(=O)c4cn(C)c(=O)n(C)c4=O)c3F)c2F)cc2c1[C@H](N[C@@H]1CCOC[C@@H]1O)CC2` (single isomer, unassigned) [Compound A-38] the value was no more than 10 nM; for `COc1nc(-c2cccc(-c3cccc(NC(=O)c4cn(C)c(=O)n(C)c4=O)c3C)c2Cl)cc2c1[C@H](NC[C@@H]1CCC(=O)N1)CC2` [Compound A-10], no more than 10 nM.
Compound `COc1nc(-c2cccc(-c3cccc(NC(=O)c4cn(C)c(=O)n(C)c4=O)c3F)c2Cl)cc2c1[C@H](NC[C@@H]1CCC(=O)N1)CC2` [Compound A-11] returned a 50% inhibitory concentration (IC50) of no more than 10 nM.
Same read-out and setting: for `COc1nc(-c2cccc(-c3cccc(NC(=O)c4cn(C)c(=O)n(C)c4=O)c3Cl)c2C)cc2c1[C@H](NC[C@@H]1CCC(=O)N1)CC2` [Compound A-12] the value was no more than 10 nM.
On the same count and under the same terms, with `COc1nc(-c2cccc(-c3cccc(NC(=O)c4cn(C)c(=O)n(C)c4=O)c3C)c2C)cc2c1[C@H](NC[C@@H]1CCC(=O)N1)CC2` [Compound A-13] the figure was no more than 10 nM; with `COc1nc(-c2cccc(-c3cccc(NC(=O)c4cn(C)c(=O)n(C)c4=O)c3F)c2C)cc2c1[C@H](NC[C@@H]1CCC(=O)N1)CC2` [Compound A-14], no more than 10 nM; with `COc1nc(-c2cccc(-c3cccc(NC(=O)c4cn(C)c(=O)n(C)c4=O)c3Cl)c2F)cc2c1[C@H](NC[C@@H]1CCC(=O)N1)CC2` [Compound A-15], no more than 10 nM.
On the same count and under the same terms, with `COc1nc(-c2cccc(-c3cccc(NC(=O)c4cn(C)c(=O)n(C)c4=O)c3C)c2F)cc2c1[C@H](NC[C@@H]1CCC(=O)N1)CC2` [Compound A-16] the figure was no more than 10 nM.
Turning to `CCOC(=O)N(C[C@@H]1CCC(=O)N1)[C@H]1CCc2cc(-c3cccc(-c4cccc(NC(=O)c5cn(C)c(=O)n(C)c5=O)c4C)c3Cl)nc(OC)c21` [Compound E-1], the IC50 was no more than 10 nM.
In turn, `COc1nc(-c2cccc(-c3cccc(NC(=O)c4cn(C)c(=O)n(C)c4=O)c3C)c2Cl)cc2c1[C@@H](N(C[C@@H]1CCC(=O)N1)C(=O)OCc1oc(=O)oc1C)CC2` [Compound F-1] registered a half-inhibitory concentration (IC50) of no more than 10 nM.
